Results on 4 compounds are retold here after US6528516B1, “Methods for reducing intraocular pressure using A3 adenosine receptor antagonists” (Trustees of the University of Pennsylvania, The Center for …, priority 1998, dated 2003).

In experiment [1] the test system is bovine pigmented ciliary epithelial (PE) cells. The experiment in a line: Cell volume (shrinkage) of PE cells in isoosmotic suspension, Coulter Counter. Type of experiment: cell-based.
For experiment [2], the system named is bovine PE cells, Cl− currents. As to the kind of experiment: Ruptured-patch whole-cell recording of PE cells. The experiment is classed as cell-based. The text has this:
Harvested cultured PE cells were resuspended and permitted to settle and attach to glass coverslips, which were then transferred to a perfusion chamber (Carré et al., supra., 1997). Solutions were designed to isolate any Cl^- current activated by ATP. […] (Am. J. Physiol., 261:[…]-[…], 1991), as previously described (Carré et al., supra., 1997). Cells were patched while still round, usually one day after dissociation. […] Data were acquired at 1 kHz using Axopatch-1B electronics and associated headstage (Axon Instruments, Foster City, Calif.) and filtered at 500 Hz with a Bessel filter. The micropipettes were double-pulled from Corning No. 7052 glass, coated with Sylgard and fire polished. The membrane potential was held without series-resistance compensation at 0 mV and stepped to voltages over the range from -100 to +100 mV in 20 mV increments for 200 msec periods. The mean current measured between 150-200 msec was used to obtain the patch-clamp data used here. The data presented in FIG. 2 was obtained at -60 mV [the approximate membrane potential (Green et al., Invest. Ophthalmol. Vis. Sci., 26:371-381, 1985)] to facilitate comparison with the volumetric data.

The next experiment concerns the target T1, human A3 receptor (Homo sapiens, UniProt P0DMS8).
T1 sequence (P0DMS8 1-318): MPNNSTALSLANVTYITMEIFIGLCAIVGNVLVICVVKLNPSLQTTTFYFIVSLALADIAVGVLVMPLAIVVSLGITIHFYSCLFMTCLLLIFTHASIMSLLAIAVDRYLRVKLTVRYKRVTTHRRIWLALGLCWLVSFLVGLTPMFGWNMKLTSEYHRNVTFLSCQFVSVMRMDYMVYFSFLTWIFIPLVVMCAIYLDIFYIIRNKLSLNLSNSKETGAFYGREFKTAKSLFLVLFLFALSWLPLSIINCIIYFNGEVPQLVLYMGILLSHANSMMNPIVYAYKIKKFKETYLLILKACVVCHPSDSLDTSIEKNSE
The experiment in a line: Radioligand binding, [125I]AB-MECA, HEK-293 cell membranes. Also on record: host or cells: HEK-293. Particulars: read-out: Ki(hA3). The method, then: Natl. Acad. Sci. […] Natl. Acad. Sci. U.S.A. 89:7432-7436, 1992) was performed as described at 4° C. (Olah et al., Mol. Pharmacol. 45:978-982, 1994). The assay medium consisted of a buffer containing 10 mM Mg^2+, 50 mM Tris, 3 units/mL adenosine deaminase, and 1 mM EDTA, at pH 8.0 (4° C.). […] Incubations were terminated by rapid filtration over Whatman GF/B filters, using a Brandell cell harvester (Brandell, Gaithersburg, MD). The tubes were rinsed three times with 3 mL buffer each. At least five different concentrations of competitor, spanning 3 orders of magnitude adjusted appropriately for the IC50 of each compound, were used. IC50 values, calculated with the nonlinear regression method implemented in the InPlot program (Graph-PAD, San Diego, Calif.), were converted to apparent Ki values using the Cheng-Prusoff equation (Cheng et al., Biochem.

SMILES strings stand for the structures. Entries after “also recorded” stand apart in the source; their conditions may differ.

One may read the Ki as a dissociation constant, usually derived from enzyme kinetics or from competition with a known ligand.

`Nc1ncnc2c1ncn2[C@@H]1O[C@H](COP(=O)(O)OP(=O)(O)OP(=O)(O)O)[C@@H](O)[C@H]1O` [ATP]: the “steady-state cell volume (v∞)” value in experiment [1] (3 μM ATP alone, FIG. 8B) turned out to be 98.0±0.4%; in experiment [1] (10 μM ATP alone, FIG. 8A), 94.3±0.3%; in experiment [1] (10 μM ATP alone, FIG. 8B), 97.2±0.3%; in experiment [1] (10 μM ATP alone, FIG. 10A), 97.2±0.3%; in experiment [1] (100 μM ATP alone, FIG. 8A) it was 94.3±0.3%; in experiment [1] (100 μM ATP alone, FIG. 13A), 94.9±1.0%. The “steady-state cell volume (v∞)” value in experiment [1] (100 μM ATP alone, FIG. 13B) is recorded as 87.5±1.8%; in experiment [1] (100 μM ATP alone, FIG. 13C), 93.9±1.7%; in experiment [1] (100 μM ATP alone, FIG. 14B), 96.8±0.5%; in experiment [1] (10 mM ATP alone, FIG. 10A) it was 97.7±0.2%. Moreover, the “time constant of the shrinkage (τ)” value in experiment [1] (3 μM ATP alone, FIG. 8B) is 10.8 ± 4.9 min; in experiment [1] (10 μM ATP alone, FIG. 8A), 2.8 ± 0.7 min; in experiment [1] (10 μM ATP alone, FIG. 8B) it was 1.6 ± 1.0 min; in experiment [1] (10 μM ATP alone, FIG. 10A), 1.6 ± 1.0 min; in experiment [1] (100 μM ATP alone, FIG. 8A) it was 2.8 ± 0.7 min; in experiment [1] (100 μM ATP alone, FIG. 13A) it was 45.2 ± 14.0 min. Also, the “time constant of the shrinkage (τ)” value in experiment [1] (100 μM ATP alone, FIG. 13B) amounted to 45.2 ± 14.0 min; in experiment [1] (100 μM ATP alone, FIG. 13C) it was 34.8 ± 13.8 min; in experiment [1] (100 μM ATP alone, FIG. 14B), 8.3 ± 3.7 min; in experiment [1] (10 mM ATP alone, FIG. 10A), 2.2 ± 0.8 min. Also, in experiment [1] (ATP alone), the “share of volumetric studies in which ATP alone produced shrinkage” value is reported as “approximately 15%”. Further, the EC50 in experiment [1] (in the presence of tamoxifen, read-out: ATP concentration eliciting approximately half-maximal response) was about 3000 nM. For the same compound, in experiment [2] (1 mM ATP, holding potential −60 mV, cultured bovine PE cell), the “effect of ATP on whole-cell current” value was “reversible and reproducible increases in inward current”. The “trials with current activated by ATP” value in experiment [2] (cultured PE cells) was 10/17; in experiment [2] (fresh bovine PE cells), 3/9.

As to `O=C(O)c1cc([N+](=O)[O-])ccc1NCCCc1ccccc1` [NPPB, 5-nitro-2-(3-phenylpropylamino)-benzoate], in experiment [1] (DIDS 500 μM, NPPB 100 μM), the “effect of Cl− channel blocker on ATP, tamoxifen-activated shrinkage” value was “inhibited the volume reduction; also recorded: abolished the synergistic shrinkage”. For the same compound, in experiment [2] (100 μM NPPB, −60 mV), the “reduction of the ATP-enhanced currents” value is 56±11%. Also, in experiment [2] (FIG. 9B), the “effect of NPPB on ATP-stimulated current” value is “partially inhibited”.

As to `CCCOC(=O)c1c(CCC)c(C(=O)SCC)c(CC)[n+](C)c1-c1ccccc1` [Compound 16, 1-Methyl-2-ethyl-4-propyl-3-(ethylsulfanylcarbonyl)-5-propyloxycarbonyl-6-phenylpyridinium Iodide], the inhibition constant Ki on human A3 receptor amounted to 2020 nM.

For the compound `CCCOC(=O)c1c(CCC)c(C(=O)SCCCF)c(CC)[n+](C)c1-c1ccccc1` [Compound 17, 1-Methyl-2-ethyl-4-propyl-3-(3-fluoropropylsulfanylcarbonyl)-5-propyloxycarbonyl-6-phenylpyridinium Iodide], the Ki at human A3 receptor came to 465 nM.
